Data from patent US20230002359A1, “PESTICIDALLY ACTIVE FUSED BICYCLIC HETEROAROMATIC COMPOUNDS” (priority 2019, published 2023).
Where two headings read alike, the source gives them in different places.

Columns and labels:
Assay type in all cases: in vivo
[1] = tested on: Chilo suppressalis (Striped Rice Stemborer); experiment: Example B3: Chilo suppressalis (striped rice stemborer), artificial diet, L2 larvae; settings: 144 h, read-out: control in at least one of the three categories (mortality, anti-feedant effect, or growth inhibition)
Method: 24-well microtiter plates with artificial diet were treated with aqueous test solutions prepared from 10′000 ppm DMSO stock solutions by pipetting. After drying, the plates were infested with L2 larvae (6-8 per well). The samples were assessed for mortality, anti-feeding effect, and growth inhibition in comparison to untreated samples 6 days after infestation. Control of Chilo suppressalis by a test sample is given when at least one of the categories mortality, anti-feedant effect, and growth inhibition is higher than the untreated sample.

[2] = tested on: Spodoptera littoralis (Egyptian Cotton Leaf Worm); experiment: Example B7: Spodoptera littoralis (Egyptian cotton leaf worm), cotton leaf discs sprayed, L1 larvae; settings: foliar, 72 h, application rate of 200 ppm, 3 days after infestation, L1 larvae, read-out: control in at least one of the three categories (mortality, anti-feedant effect, or growth inhibition)
Method: Cotton leaf discs were placed onto agar in 24-well microtiter plates and sprayed with aqueous test solutions prepared from 10′000 ppm DMSO stock solutions. After drying the leaf discs were infested with five L1 larvae. The samples were assessed for mortality, anti-feeding effect, and growth inhibition in comparison to untreated samples 3 days after infestation. Control of Spodoptera littoralis by a test sample is given when at least one of the categories mortality, anti-feedant effect, and growth inhibition is higher than the untreated sample.

[3] = tested on: Plutella xylostella (Diamond Back Moth); experiment: Example B4: Plutella xylostella (diamond back moth), artificial diet, eggs, 24-well; settings: 192 h, read-out: control in at least one of the two categories (mortality or growth inhibition)
Method: 24-well microtiter plates with artificial diet were treated with aqueous test solutions prepared from 10′000 ppm DMSO stock solutions by pipetting. After drying, Plutella eggs were pipetted through a plastic stencil onto a gel blotting paper and the plate was closed with it. The samples were assessed for mortality and growth inhibition in comparison to untreated samples 8 days after infestation.

[4] = tested on: Diabrotica Balteata (Corn Root Worm); experiment: Example B1: Diabrotica balteata (corn root worm), maize sprouts sprayed, L2 larvae; settings: 96 h, read-out: control in at least one of the two categories (mortality or growth inhibition)
Method: Maize sprouts placed onto an agar layer in 24-well microtiter plates were treated with aqueous test solutions prepared from 10′000 ppm DMSO stock solutions by spraying. After drying, the plates were infested with L2 larvae (6 to 10 per well). The samples were assessed for mortality and growth inhibition in comparison to untreated samples 4 days after infestation.

[5] = application rate of 200 ppm, 6 days after infestation, L2 larvae
[6] = application rate of 200 ppm, 8 days after infestation, eggs
[7] = application rate of 200 ppm, 4 days after infestation, L2 larvae

| SMILES | percent control (mortality, anti-feedant effect or growth inhibition) at 200 ppm [1, 5] | percent control (mortality, anti-feedant effect or growth inhibition) at 200 ppm [2] | percent control (mortality or growth inhibition) at 200 ppm [3, 6] | percent control (mortality or growth inhibition) at 200 ppm [4, 7] | percent control (mortality, anti-feedant effect or growth inhibition) at 200 ppm [1] | percent control (mortality or growth inhibition) at 200 ppm [3] | percent control (mortality or growth inhibition) at 200 ppm [4] |
| --- | --- | --- | --- | --- | --- | --- | --- |
| CC(c1nc(Br)nn1-c1ncccn1)N(C)c1ncnc2c(C(F)(F)F)cc(C(F)(F)F)cc12 (centres unmarked) [P.4, N-[1-(5-bromo-2-pyrimidin-2-yl-1,2,4-triazol-3-yl)ethyl]-N-methyl-6,8-bis(trifluoromethyl)quina-zolin-4-amine] | ≥ 80% | ≥ 80% | ≥ 80% | ≥ 80% | – | – | – |
| C[C@H](Nc1ccnc2c(C(F)(F)F)cc(C(F)(F)F)cc12)c1ncnn1-c1ncccn1 [P.5, N-[(1S)-1-(2-pyrimidin-2-yl-1,2,4-triazol-3-yl)ethyl]-6,8-bis(trifluoromethyl)quinolin-4-amine] | ≥ 80% | ≥ 80% | ≥ 80% | ≥ 80% | – | – | – |
| CC(c1ncnn1-c1ccc(C#N)cn1)N(C#N)c1ncnc2c(C(F)(F)F)cc(C(F)(F)F)cc12 (centres unmarked) [P.9, [6,8-bis(trifluoromethyl)quina-zolin-4-yl]-[1-[2-(5-cyano-2-pyridyl)-1,2,4-triazol-3-yl]ethyl]cyanamide] | ≥ 80% | ≥ 80% | ≥ 80% | ≥ 80% | – | – | – |
| CC(Nc1ncnc2c(Br)cc(OC(F)(F)F)cc12)c1nccnc1-n1nccn1 (centres unmarked) [P.13, 8-bromo-N-[1-[3-(triazol-2-yl)pyrazin-2-yl]ethyl]-6-(trifluoromethoxy)quina-zolin-4-amine] | ≥ 80% | ≥ 80% | ≥ 80% | ≥ 80% | – | – | – |
| CC(Nc1ncnc2c(OC(F)(F)F)cc(Br)cc12)c1nccnc1-n1nccn1 (centres unmarked) [P.14, 6-bromo-N-[1-[3-(triazol-2-yl)pyrazin-2-yl]ethyl]-8-(trifluoromethoxy)quina-zolin-4-amine] | ≥ 80% | ≥ 80% | ≥ 80% | ≥ 80% | – | – | – |
| CC(Nc1nc(Cl)nc2c(C(F)(F)F)cc(C(F)(F)F)cc12)c1ncnn1-c1ncccn1 (centres unmarked) [P.25, 2-chloro-N-[1-(2-pyrimidin-2-yl-1,2,4-triazol-3-yl)ethyl]-6,8-bis(trifluoromethyl)quinazolin-4-amine] | ≥ 80% | ≥ 80% | – | ≥ 80% | – | – | – |
| CC(Nc1ncnc2c(C(F)(F)F)cc(Cl)cc12)c1ncnn1-c1ccc(C#N)cn1 (centres unmarked) [P.41, 6-[5-[1-[[6-chloro-8-(trifluoromethyl)quinazolin-4-yl]amino]ethyl]-1,2,4-triazol-1-yl]pyridine-3-carbonitrile] | ≥ 80% | ≥ 80% | ≥ 80% | – | – | – | – |
| CC(Nc1ncnc2c(Br)cc(C(F)(F)F)cc12)c1ncnn1-c1ccc(C#N)cn1 (centres unmarked) [P.42, 6-[5-[1-[[8-bromo-6-(trifluoromethyl)quinazolin-4-yl]amino]ethyl]-1,2,4-triazol-1-yl]pyridine-3-carbonitrile] | ≥ 80% | ≥ 80% | ≥ 80% | – | – | – | – |
| CC(Nc1ncnc2c(Cl)cc(C(F)(F)F)cc12)c1ncnn1-c1ccc(C#N)cn1 (centres unmarked) [P.45, 6-[5-[1-[[8-chloro-6-(trifluoromethyl)quinazolin-4-yl]amino]ethyl]-1,2,4-triazol-1-yl]pyridine-3-carbonitrile] | ≥ 80% | ≥ 80% | ≥ 80% | – | – | – | – |
| C[C@H](c1ncnn1-c1ccc(C#N)cn1)N(C)c1ncnc2c(C(F)(F)F)cc(C(F)(F)F)cc12 [P.53, 6-[5-[(1R)-1-[[6,8-bis(trifluoromethyl)quina-zolin-4-yl]-methyl-amino]ethyl]-1,2,4-triazol-1-yl]pyridine-3-carbonitrile] | ≥ 80% | ≥ 80% | ≥ 80% | – | – | – | – |
| CC(Nc1ncnc2c(Cl)cc(C(F)(F)F)cc12)c1nccnc1-c1ccc(C#N)cn1 (centres unmarked) [P.121, 6-[3-[1-[[8-chloro-6-(trifluoromethyl)quinazolin-4-yl]amino]ethyl]pryazin-2-yl]pyridine-3-carbonitrile] | ≥ 80% | ≥ 80% | – | – | – | – | – |
| CC(c1nccnc1-c1ccc(C#N)cn1)N(C)c1ncnc2c(C(F)(F)F)cc(Br)cc12 (centres unmarked) [P.125, 6-[3-[1-[[6-bromo-8-(trifluoromethyl)quinazolin-4-yl]-methyl-amino]ethyl]pyrazin-2-yl]pyridine-3-carbonitrile] | – | ≥ 80% | ≥ 80% | – | – | – | – |
| CC(Nc1ncnc2c(Cl)c(F)c(Cl)cc12)c1ncnn1-c1ncccn1 (centres unmarked) [P.166, 6,8-dichloro-7-fluoro-N-[1-(2-pyrimidin-2-yl-1,2,4-triazol-3-yl)ethyl]quinazolin-4-amine] | – | ≥ 80% | – | ≥ 80% | – | – | – |
| CC(Nc1ncnc2c(C(F)(F)F)cc(Br)cc12)c1ncnn1-c1ccc(OC(F)F)cn1 (centres unmarked) [P.195, 6-bromo-N-[1-[2-[5-(difluoromethoxy)-2-pyridyl]-1,2,4-triazol-3-yl]ethyl]-8-(trifluoromethyl)quinazolin-4-amine] | ≥ 80% | ≥ 80% | – | – | – | – | – |
| C[C@@H](c1ncnn1-c1ccc(C#N)cn1)N(C)c1ncnc2c(C(F)(F)F)cc(Br)cc12 [P.204, 6-[5-[(1S)-1-[[6-bromo-8-(trifluoromethyl)quinazolin-4-yl]-methyl-amino]ethyl]-1,2,4-triazol-1-yl]pyridine-3-carbonitrile] | – | ≥ 80% | ≥ 80% | – | – | – | – |
| COc1ccc(CN(c2ncnc3c(C(F)(F)F)cc(C(F)(F)F)cc23)C(C)c2nccnc2-c2ncccn2)cc1 (centres unmarked) [P.225, N-[(4-methoxyphenyl)methyl]-N-[1-(3-pyrimidin-2-ylpyrazin-2-yl)ethyl]-6,8-bis(trifluoromethyl)quina-zolin-4-amine] | ≥ 80% | – | ≥ 80% | ≥ 80% | – | – | – |
| C[C@@H](c1ncnn1-c1ccc(C#N)cn1)N(C(=O)Oc1ccccc1)c1ncnc2c(C(F)(F)F)cc(C(F)(F)F)cc12 [P.226, phenyl N-[6,8-bis(trifluoromethyl)quina-zolin-4-yl]-N-[(1S)-1-[2-(5-cyano-2-pyridyl)-1,2,4-triazol-3-yl]ethyl]carbamate] | – | – | – | – | ≥ 80% | ≥ 80% | ≥ 80% |
| CC(Nc1ncnc2c(C(F)(F)F)cc(Cl)cc12)c1ncnn1-c1ccc(F)cn1 (centres unmarked) [P.234, 6-chloro-N-[1-[2-(5-fluroo-2-pyridyl)-1,2,4-triazol-3-yl]ethyl]-8-(trifluoromethyl)quinazolin-4-amine] | – | ≥ 80% | ≥ 80% | ≥ 80% | – | – | – |
| CC(Nc1ncnc2c(Br)cc(OC(F)(F)F)cc12)c1ncnn1-c1ccc(C#N)cn1 (centres unmarked) [P.246, 6-[5-[1-[[8-bromo-6-(trifluoromethoxy)quinazo-lin-4-yl]amino]ethyl]-1,2,4-triazol-1-yl]pyridine-3-carbonitrile] | ≥ 80% | ≥ 80% | ≥ 80% | – | – | – | – |
| CC(c1nccnc1-c1ccc(C#N)cn1)N(C)c1ncnc2c(C(F)(F)F)cc(Cl)cc12 (centres unmarked) [P.275, 6-[3-[1-[[6-chloro-8-(trifluoromethyl)quinazolin-4-yl]-methyl-amino]ethyl]pyrazin-2-yl]pyridine-3-carbonitrile] | ≥ 80% | ≥ 80% | – | – | – | – | – |
